Measurements reported in patent US11331368B2, “Angiotensin receptor agonists and uses thereof” (Monash University, priority 2017, dated 2022).

Tests used:
[1] = molecular target: T1, human AT1R (Homo sapiens, UniProt P30556); test: Competition radioligand binding (125I-Sar1-Ile8-AngII) in AT1R-transfected HEK-293 cells
T1 construct: expressed in transfected cells
T1 sequence (P30556 1-359): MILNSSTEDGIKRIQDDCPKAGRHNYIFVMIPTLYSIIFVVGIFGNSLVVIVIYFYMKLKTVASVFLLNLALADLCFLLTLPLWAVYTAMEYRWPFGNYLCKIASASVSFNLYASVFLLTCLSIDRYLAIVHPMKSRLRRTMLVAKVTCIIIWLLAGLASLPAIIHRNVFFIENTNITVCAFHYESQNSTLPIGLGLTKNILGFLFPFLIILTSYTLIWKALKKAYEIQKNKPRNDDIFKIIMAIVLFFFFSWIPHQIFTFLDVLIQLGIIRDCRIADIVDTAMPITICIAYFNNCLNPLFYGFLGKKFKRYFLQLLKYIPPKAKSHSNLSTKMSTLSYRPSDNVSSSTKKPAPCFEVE
Experimental: This will lead to the generation of IC50 values that determine the relative ability of test compounds to interact with both Angiotensin receptors.
Cells were grown to approximately 80% confluence before being re-plated into 48 well plates at 1×10^5 cells/well and grown for 48 hours at 37° C. for a whole cell competition binding assay. [125I]-Sar1Ile8Ang II at 50,000 cpm, incubated for 45 minutes at 37° C., in the absence or presence of unlabeled ligands, prepared in binding buffer (DMEM, 0.1% BSA), were used in the competition assays at concentrations ranging from 1 μM to 10 μM. For each experiment, each ligand concentration was tested in duplicate or triplicate, and each experiment was repeated at least 3 separate times. […] The ability of each ligand to inhibit specific binding of [125I]-Sar1Ile8Ang II was measured on a gamma counter with all counts corrected for NSB.

[2] = molecular target: T2, human AT2R (Homo sapiens, UniProt P50052); test: Competition radioligand binding (125I-Sar1-Ile8-AngII) in AT2R-transfected HEK-293 cells; details: transfected HEK-293 cells
T2 construct: expressed in transfected cells
T2 sequence (P50052 1-363): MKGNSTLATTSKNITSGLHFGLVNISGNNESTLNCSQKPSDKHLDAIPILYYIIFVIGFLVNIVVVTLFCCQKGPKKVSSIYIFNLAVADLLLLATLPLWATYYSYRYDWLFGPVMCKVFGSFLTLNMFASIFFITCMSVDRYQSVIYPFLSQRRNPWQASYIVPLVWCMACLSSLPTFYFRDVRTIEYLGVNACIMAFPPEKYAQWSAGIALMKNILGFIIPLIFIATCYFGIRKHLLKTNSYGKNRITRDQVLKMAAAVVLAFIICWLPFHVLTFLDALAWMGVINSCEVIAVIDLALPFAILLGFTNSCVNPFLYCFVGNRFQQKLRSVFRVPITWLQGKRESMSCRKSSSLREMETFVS

[3] = In vitro plasma stability assay (rat plasma); format: in vitro ADME; details: plasma from male spontaneously hypertensive rats (SHR), read-out: Plasma stability (t1/2)
Experimental: Proteolytic stability may be tested in a plasma stability assay used to assess the susceptibility of a peptide described herein to plasma proteases. Plasma stability may be tested using methods described herein. For example, a sample of rat plasma may be incubated with peptide of interest (final concentration was 1 mg/mL; plasma diluted by 10% with peptide dissolved in saline). Protease activity is then quenched in samples by the addition of acetonitrile, at selected time intervals. The amount of parent compound remaining at each time point can then be assayed on an Agilent 1100 MSD SL ion trap mass spectrometer. The peaks observed in the resulting chromatograms are integrated, compared to a standard curve, and cross-checked by mass and retention time (Jones et al 2011 Hypertension. 57: 570-576).
B) Proteolytic stability was tested in a plasma stability assay used to assess the susceptibility of Ang II peptides to plasma proteases. A sample of rat plasma was incubated with peptide of interest (final concentration was 1 mg/mL; plasma diluted by 10% with peptide dissolved in saline). Protease activity was quenched in samples by the addition of acetonitrile, at selected time intervals. The amount of parent compound remaining at each time point was then assayed on an Agilent 1100 MSD SL ion trap mass spectrometer. […]

[4] = test system: male FVB/N mice on high salt diet, heart; test: High salt (5%) diet intervention model, heart; format: in vivo, mouse
Procedure, shortened: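 Male FVB/N mice fed 5% salt diet for 8 weeks (controls 0.35% NaCl); from week 4, AT2R agonist at 75 pmol/kg/min or saline given subcutaneously by osmotic minipump for 4 weeks on continued high salt. Heart collagen by picrosirius red, % interstitial staining averaged over eight fields; immunofluorescence for fibrosis/inflammation markers.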

[5] = test system: male FVB/N mice on high salt diet, kidney; test: High salt (5%) diet intervention model, kidney; format: in vivo, mouse; details: 75 pmol/kg/min s.c., weeks 5-8
Experimental: C) In the intervention (or reversal) model, male FVB/N mice were treated with selective AT2Rs agonists after the establishment of cardiovascular disease using a high salt diet, in order to reverse cardiovascular pathologies. In some experiments, the ACE inhibitor captopril (dose) or the ARB candesartan cilexetil (dose) were given for 4 weeks in drinking water. Organs examined included heart, kidney and liver and these were compared to either untreated mice or high salt-fed mice that were treated with saline.
Mice were placed on either a normal rodent diet (0.35% NaCl) which acted as control or a high salt diet (5% sodium in food chow) for 8 weeks. After 4 weeks, mice were also treated subcutaneously (via osmotic mini-pump) with either saline or an AT2R agonist (75 pmol/kg/min subcutaneously) for 4 weeks. Mice continued to be fed a high salt diet whilst receiving these treatments.
To measure collagen deposition, frozen sections of heart, kidney or aorta (all 5 μm thickness) were air dried for 10 minutes and were brought through 3 times xylene (2 minutes each), and 3 times absolute alcohol washes before being rinsed in tap H2O for 30 seconds. Staining with an optimal concentration of picrosirius red (in this instance 0.05% picrosirius red diluted in saturated picric acid) was performed and left for an hour. Sections were then rinsed in water and differentiated in 0.01M HCl for 2 minutes, followed by dehydration via 3 times absolute alcohol washes. Then, slides were brought through 3 times xylene washes before being cover slipped according to standard histological techniques using DPX as the mounting medium. Images were taken under ×20 magnification, using bright field (Olympus, BX51) and circularized polarized light microscopy (DM IRB, Leica) while percentage of positive interstitial collagen staining per total field of view was quantified using ImageJ 1.46 software (Java, NIH), and averaged out from a total of eight views as the final percentage collagen content in a particular animal.
Kidney sections used either picrosirius red staining as described above or using Mason's Trichrome staining as described below.
Formalin fixed, paraffin embedded kidneys were sectioned at thickness of 4 μm and were stained with Masson's trichrome according to standard procedures for analysis of kidney fibrosis. […] Sections were re-fixed in Bouin's solution for 1 hour at 56° C. to improve staining quality then rinsed in running tap water for 5-10 minutes to remove yellow colour. Following this, sections were stained in Weigert's iron hematoxylin working solution for 10 minutes. Rinsed in running warm tap water for 10 minutes. Washed in distilled water. Stained in Biebrich scarlet-acid fuchsin solution for 10-15 minutes. Washed in distilled water. Differentiated in phosphomolybdic-phosphotungstic acid solution for 10-15 minutes or until collagen was no longer red. Sections were transferred directly (without rinse) to aniline blue solution and stained for 5-10 minutes. Rinsed briefly in distilled water and differentiated in 1% acetic acid solution for 2-5 minutes. Washed in distilled water. […] Mounted with DPX mounting medium.
Quantification of kidney fibrosis was performed using images captured with the Aperio scanner (Monash Histology Platform, Monash University), with ×5 magnification. Each kidney section had 5 different fields of view photographed at this magnification. Percentage of tubulointerstitial collagen was analysed and quantified using ImageJ 1.48 software (Java, NIH), and the percentage from 5 random fields of view were averaged for final percentage of collagen for that particular animal. All analysis of collagen expression was conducted in a blinded fashion.

[6] = test system: male FVB/N mice on high salt diet, kidney; test: High salt (5%) diet intervention model, kidney; format: in vivo, mouse; details: 75 pmol/kg/min s.c., weeks 5-8; remark: listed apart in the source

CC[C@H](C)[C@H](NC(=O)[C@H](Cc1ccc(O)cc1)NC(=O)[C@@H](NC(=O)[C@H](CCCNC(=N)N)NC(C)=O)C(C)C)C(=O)N[C@@H](Cc1c[nH]cn1)C(=O)N1CCC[C@H]1CC(=O)N[C@@H](Cc1c[nH]c2ccccc12)C(=O)O [NAc-βPro-Trp-8-Ang III, NAc--Arg-Val-Tyr-Ile-His-β-Pro-Trp]
binding at AT1R (displacement of 125I-Sar1-Ile8-AngII), in words [1]: bind poorly
binding at AT2R (displacement of 125I-Sar1-Ile8-AngII), in words [2]: high affinity
half-life at 1 mg/mL [3]: 25.8 h
cardiac fibrosis by hydroxyproline analysis (LV collagen content) ([4]; 75 pmol/kg/min s.c., weeks 5-8): reversed the pro-fibrotic effects of high salt in the heart
cardiac oxidative stress (DHE staining) ([4]; 75 pmol/kg/min s.c., weeks 5-8): reversed the oxidative stress effects of high salt in the heart
myofibroblast differentiation in heart (α-SMA) ([4]; 75 pmol/kg/min s.c., weeks 5-8): reversed myofibroblast differentiation
expression of P-IκBα (marker for NFκB activation) in heart ([4]; weeks 5-8, peptides 75 pmol/kg/min s.c., Cand 2 mg/kg/day, captopril 3 mg/kg/day): reversed
cardiac fibrosis (picrosirius red) ([4]; weeks 5-8 of high salt diet, peptides 75 pmol/kg/min s.c. mini-pump, Cand 2 mg/kg/day, captopril 3 mg/kg/day in drinking water): reversed cardiac fibrosis
kidney glomerular fibrosis (picrosirius red) [5]: reversed the glomerular fibrosis caused by high salt in the kidney
kidney tubulointerstitial fibrosis (picrosirius red) [5]: reversed the tubulointerstitial fibrosis caused by high salt in the kidney
macrophage infiltration in kidney (F4/80) [6]: reversed high salt-induced macrophage infiltration in the kidney
renal fibrosis by hydroxyproline analysis [6]: reversed the pro-fibrotic effects of high salt in the kidney
renal inflammation (phospho-IκBα expression) [6]: reversed high salt-induced renal inflammation in the kidney
